Test results: patent publication US12391691B2, “Synthesis of key intermediate of KRAS G12C inhibitor compound” (Amgen Inc., priority 2018, dated 2025)
Converted amounts (≈) assume the structure as drawn.

What was measured:
physchem = settings: organic solvent or mixture, thermodynamic from solid
[1] = 5-day equilibrium solubility of M/P-Dione (ternary phase diagram); settings: 2-MeTHF/n-heptane (1.4:1, v/v), RT, 5 days; for Solid XRPD: residual solid
[2] = #3: 20.2 mg M-Dione + 119.3 mg P-Dione
[3] = #4: 89.8 mg M-Dione + 90.3 mg P-Dione
[4] = #5: 121.1 mg M-Dione + 40.7 mg P-Dione
[5] = #6: 90.2 mg M-Dione + 19.5 mg P-Dione
[6] = #7: 41.6 mg M-Dione + 39.9 mg P-Dione
[7] = #8: 39.2 mg M-Dione + 120.3 mg P-Dione
[8] = #9: 119.1 mg M-Dione + 20.5 mg P-Dione

SMILES: O=C(O[C@H](C(=O)O)[C@H](OC(=O)c1ccccc1)C(=O)O)c1ccccc1 [DBTA, (+)-2,3-dibenzoyl-D-tartaric acid]
- solubility at 5 days (physchem; 20 °C): 99.1 mg/mL (≈ 277 mM)
- solubility at 5 days (physchem; 30 °C): 100 mg/mL (≈ 280 mM)
- solubility at 5 days (physchem; 40 °C): 98.9 mg/mL (≈ 276 mM)
- solubility at 5 days (physchem; 50 °C): 88 mg/mL (≈ 246 mM)
- solubility at 5 days (physchem; 60 °C): 105 mg/mL (≈ 293 mM)
- solubility at 5 days (physchem; 65 °C): 96.1 mg/mL (≈ 268 mM)
- solubility at 5 days (physchem): ~100 mg/mL (≈ 279 mM)

SMILES: Cc1ccnc(C(C)C)c1-n1c(=O)[nH]c(=O)c2cc(F)c(Cl)nc21 [M/P-Dione]
- Solid de [1, 2]: −69.2%
- Supernatant [M]/[P] [1, 2]: 0.2
- Supernatant de [1, 2]: −73.6%
- Solid XRPD [1, 2]: A + RD
- Solid de [1, 3]: 0.6%
- Supernatant [M]/[P] [1, 3]: 0.9
- Supernatant de [1, 3]: −3.9%
- Solid de [1, 4]: 27.0%
- Supernatant [M]/[P] [1, 4]: 33.4
- Supernatant de [1, 4]: 94.2%
- Solid XRPD [1, 4]: A + RC
- Solid de [1, 5]: 35.0%
- Supernatant [M]/[P] [1, 5]: 37.6
- Supernatant de [1, 5]: 94.8%
- Solid XRPD [1, 5]: A + RC
- Solid de [1, 6]: 1.4%
- Supernatant [M]/[P] [1, 6]: 1.1
- Supernatant de [1, 6]: 4.4%
- Solid de [1, 7]: −39.1%
- Supernatant [M]/[P] [1, 7]: 0.2
- Supernatant de [1, 7]: −72.8%
- Solid XRPD [1, 7]: A + RD
- Solid de [1, 8]: 54.9%
- Supernatant [M]/[P] [1, 8]: 34.5
- Supernatant de [1, 8]: 94.4%
- Solid XRPD [1, 8]: A + RC
